This assay has as its target Ryanodine receptor 1 (Mus musculus) (UniProt E9PZQ0). The assay can be described thus: Selective inhibition of Ryanodine receptor 1 mediated physiological [Ca2+] release (PCR) from sarcoplasmic reticulum against calcium-induced Ca2+ release (CICR). Type of assay: functional.

Active and inactive are the calls of the source. The calls are words filed in the database; no cut-off is given here.

Ryanodine receptor 1 (Mus musculus), sequence (E9PZQ0 whole entry): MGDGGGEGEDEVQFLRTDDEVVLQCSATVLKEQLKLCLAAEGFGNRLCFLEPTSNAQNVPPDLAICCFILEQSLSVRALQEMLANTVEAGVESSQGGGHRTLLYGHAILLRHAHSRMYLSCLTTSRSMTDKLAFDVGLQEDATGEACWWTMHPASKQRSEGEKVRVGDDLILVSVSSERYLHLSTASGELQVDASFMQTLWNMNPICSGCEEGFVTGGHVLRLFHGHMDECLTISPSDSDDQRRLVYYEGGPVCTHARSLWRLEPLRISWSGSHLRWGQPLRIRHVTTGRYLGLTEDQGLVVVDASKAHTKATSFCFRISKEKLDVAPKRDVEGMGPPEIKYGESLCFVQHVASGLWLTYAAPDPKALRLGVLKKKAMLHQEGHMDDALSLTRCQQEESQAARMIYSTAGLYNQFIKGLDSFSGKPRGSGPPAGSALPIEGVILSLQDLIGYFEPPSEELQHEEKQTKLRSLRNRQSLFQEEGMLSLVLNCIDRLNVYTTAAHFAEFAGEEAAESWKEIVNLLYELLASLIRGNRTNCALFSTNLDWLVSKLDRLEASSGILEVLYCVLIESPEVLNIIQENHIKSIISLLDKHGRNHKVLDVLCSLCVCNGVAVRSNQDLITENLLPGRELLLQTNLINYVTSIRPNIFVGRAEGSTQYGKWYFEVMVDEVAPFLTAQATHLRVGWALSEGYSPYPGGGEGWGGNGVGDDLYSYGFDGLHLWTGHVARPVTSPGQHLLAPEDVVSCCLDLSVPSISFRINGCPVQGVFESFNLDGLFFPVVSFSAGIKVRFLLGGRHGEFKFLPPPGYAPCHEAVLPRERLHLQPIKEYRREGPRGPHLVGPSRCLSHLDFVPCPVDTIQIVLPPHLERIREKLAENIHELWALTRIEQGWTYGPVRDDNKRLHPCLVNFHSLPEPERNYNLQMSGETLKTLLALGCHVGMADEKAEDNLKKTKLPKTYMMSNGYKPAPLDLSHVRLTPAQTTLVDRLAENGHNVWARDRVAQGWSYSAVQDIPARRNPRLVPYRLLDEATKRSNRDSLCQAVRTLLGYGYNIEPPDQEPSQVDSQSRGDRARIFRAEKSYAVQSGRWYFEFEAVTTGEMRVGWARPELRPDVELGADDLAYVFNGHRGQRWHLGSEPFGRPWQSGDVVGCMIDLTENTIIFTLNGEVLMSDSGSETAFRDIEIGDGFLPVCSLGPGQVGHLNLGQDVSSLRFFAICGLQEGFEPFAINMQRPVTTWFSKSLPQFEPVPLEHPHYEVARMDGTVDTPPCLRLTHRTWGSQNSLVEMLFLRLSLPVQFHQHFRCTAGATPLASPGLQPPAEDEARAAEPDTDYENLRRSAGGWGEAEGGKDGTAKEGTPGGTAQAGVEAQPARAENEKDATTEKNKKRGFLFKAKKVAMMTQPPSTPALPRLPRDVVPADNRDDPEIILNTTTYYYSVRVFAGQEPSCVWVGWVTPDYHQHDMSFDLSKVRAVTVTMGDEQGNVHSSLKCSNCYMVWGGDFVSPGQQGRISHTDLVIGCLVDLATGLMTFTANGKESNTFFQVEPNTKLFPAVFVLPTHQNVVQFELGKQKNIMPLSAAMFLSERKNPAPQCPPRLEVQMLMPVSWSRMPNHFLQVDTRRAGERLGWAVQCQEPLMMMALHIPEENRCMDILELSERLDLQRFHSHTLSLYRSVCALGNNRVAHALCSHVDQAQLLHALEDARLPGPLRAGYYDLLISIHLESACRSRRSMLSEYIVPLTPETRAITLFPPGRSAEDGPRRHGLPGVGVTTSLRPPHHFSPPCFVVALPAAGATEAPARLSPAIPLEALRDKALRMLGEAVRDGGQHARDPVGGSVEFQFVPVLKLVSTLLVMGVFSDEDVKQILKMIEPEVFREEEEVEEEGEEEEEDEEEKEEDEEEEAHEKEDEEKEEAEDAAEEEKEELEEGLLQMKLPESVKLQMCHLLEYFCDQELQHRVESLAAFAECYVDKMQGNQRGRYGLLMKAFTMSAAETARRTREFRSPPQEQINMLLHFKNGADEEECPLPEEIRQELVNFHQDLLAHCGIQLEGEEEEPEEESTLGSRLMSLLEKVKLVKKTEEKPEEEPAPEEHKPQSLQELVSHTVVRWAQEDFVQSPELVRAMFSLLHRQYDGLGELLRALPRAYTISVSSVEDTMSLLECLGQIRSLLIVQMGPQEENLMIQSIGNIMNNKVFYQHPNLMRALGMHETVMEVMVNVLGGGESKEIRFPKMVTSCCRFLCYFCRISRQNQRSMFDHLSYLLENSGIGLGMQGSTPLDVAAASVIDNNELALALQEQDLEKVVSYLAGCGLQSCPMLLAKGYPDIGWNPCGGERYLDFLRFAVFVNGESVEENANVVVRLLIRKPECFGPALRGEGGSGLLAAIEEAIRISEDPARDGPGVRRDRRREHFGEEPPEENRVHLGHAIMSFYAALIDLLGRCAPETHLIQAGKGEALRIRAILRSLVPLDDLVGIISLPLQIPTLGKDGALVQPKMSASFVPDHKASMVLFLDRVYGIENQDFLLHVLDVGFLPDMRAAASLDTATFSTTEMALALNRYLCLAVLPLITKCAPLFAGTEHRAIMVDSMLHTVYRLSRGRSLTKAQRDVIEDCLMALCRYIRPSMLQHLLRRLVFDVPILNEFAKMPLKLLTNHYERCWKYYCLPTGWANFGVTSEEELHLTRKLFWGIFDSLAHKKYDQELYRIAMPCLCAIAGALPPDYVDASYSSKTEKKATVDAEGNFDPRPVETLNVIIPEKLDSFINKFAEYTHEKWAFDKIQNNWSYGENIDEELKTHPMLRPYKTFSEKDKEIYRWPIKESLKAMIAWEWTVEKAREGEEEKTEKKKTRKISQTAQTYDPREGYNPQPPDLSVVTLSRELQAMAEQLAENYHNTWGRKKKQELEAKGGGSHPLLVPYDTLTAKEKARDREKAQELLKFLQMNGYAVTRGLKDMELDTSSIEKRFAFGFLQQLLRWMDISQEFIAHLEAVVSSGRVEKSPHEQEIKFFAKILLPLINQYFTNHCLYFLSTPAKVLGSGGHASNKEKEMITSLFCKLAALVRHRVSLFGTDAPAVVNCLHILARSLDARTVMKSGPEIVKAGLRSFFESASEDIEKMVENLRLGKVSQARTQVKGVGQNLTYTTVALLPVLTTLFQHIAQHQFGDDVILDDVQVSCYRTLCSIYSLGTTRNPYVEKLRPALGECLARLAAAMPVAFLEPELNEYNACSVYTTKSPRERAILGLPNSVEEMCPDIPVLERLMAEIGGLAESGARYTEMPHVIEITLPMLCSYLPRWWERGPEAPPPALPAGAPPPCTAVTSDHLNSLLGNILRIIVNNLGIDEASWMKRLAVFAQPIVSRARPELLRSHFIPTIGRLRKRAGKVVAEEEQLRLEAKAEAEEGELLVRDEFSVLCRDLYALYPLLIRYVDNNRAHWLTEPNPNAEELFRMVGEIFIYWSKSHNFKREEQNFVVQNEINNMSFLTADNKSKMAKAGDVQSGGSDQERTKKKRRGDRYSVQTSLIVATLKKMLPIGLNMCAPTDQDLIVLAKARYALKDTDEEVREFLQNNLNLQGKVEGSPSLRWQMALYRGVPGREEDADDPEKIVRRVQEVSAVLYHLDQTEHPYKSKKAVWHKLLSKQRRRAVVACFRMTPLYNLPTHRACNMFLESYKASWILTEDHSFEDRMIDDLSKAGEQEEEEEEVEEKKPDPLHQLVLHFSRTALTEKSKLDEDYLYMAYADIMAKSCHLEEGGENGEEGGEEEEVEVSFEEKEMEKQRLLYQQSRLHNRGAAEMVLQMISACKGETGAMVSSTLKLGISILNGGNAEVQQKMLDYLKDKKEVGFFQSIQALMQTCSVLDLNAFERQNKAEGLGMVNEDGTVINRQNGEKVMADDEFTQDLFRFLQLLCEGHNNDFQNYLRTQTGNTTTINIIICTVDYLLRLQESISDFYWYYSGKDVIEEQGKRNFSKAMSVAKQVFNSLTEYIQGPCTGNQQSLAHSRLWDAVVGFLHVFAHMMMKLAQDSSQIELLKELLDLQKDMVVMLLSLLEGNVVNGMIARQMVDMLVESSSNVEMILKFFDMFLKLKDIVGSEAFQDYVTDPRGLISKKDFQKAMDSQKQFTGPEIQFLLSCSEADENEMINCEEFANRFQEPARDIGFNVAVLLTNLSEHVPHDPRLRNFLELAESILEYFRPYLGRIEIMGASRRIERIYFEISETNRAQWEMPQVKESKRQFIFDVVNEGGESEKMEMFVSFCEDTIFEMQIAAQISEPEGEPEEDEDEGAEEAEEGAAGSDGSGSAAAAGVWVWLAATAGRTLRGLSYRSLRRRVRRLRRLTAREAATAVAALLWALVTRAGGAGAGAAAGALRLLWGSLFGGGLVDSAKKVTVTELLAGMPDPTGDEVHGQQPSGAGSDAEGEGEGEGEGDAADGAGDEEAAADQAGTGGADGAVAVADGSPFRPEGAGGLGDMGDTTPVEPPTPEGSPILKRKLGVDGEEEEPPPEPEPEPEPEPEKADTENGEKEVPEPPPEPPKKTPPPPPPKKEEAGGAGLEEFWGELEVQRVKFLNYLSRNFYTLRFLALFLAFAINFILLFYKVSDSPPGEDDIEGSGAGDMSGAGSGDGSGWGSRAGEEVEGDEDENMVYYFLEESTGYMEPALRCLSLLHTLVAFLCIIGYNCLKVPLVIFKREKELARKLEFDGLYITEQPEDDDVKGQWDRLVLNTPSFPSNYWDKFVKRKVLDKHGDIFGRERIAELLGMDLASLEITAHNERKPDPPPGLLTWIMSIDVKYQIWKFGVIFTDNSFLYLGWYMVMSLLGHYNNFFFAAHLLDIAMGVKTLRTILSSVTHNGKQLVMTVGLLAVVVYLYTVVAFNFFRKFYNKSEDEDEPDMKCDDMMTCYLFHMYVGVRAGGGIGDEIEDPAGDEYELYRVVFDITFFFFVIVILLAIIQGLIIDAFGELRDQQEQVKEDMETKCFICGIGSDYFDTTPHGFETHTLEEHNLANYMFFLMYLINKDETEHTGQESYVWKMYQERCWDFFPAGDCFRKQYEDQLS

With `O=C1CN(/N=C/c2ccc(-c3ccc([N+](=O)[O-])cc3)o2)C(=O)N1Cc1cc(I)cc(C2(C(F)(F)F)N=N2)c1`, the result was Active.
Under `[N-]=[N+]=Nc1cc(I)cc(CN2C(=O)CN(/N=C/c3ccc(-c4ccc([N+](=O)[O-])cc4)o3)C2=O)c1` stands “Active”.

The values above are taken from ChEMBL document CHEMBL1134961, “[(125)I]-N-[(3-azido-5-iodo)benzyl]dantrolene and [(125)I]-N-[[3-iodo-5-(3-trifluoromethyl-3H-diazirin-3-yl)]benzyl]dantrolene: photoaffinity probes specific for the physiological Ca(2+) release from sarcoplasmic reticulum of skeletal muscle” (Bioorg Med Chem Lett, 2002).
